# Data as given in ChEMBL document CHEMBL1135542, “Successful virtual screening for novel inhibitors of human carbonic anhydrase: strategy and experimental confirmation” (J Med Chem, 2002).
# Key:
# [1] = molecular target: T1, Carbonic anhydrase 2 (Homo sapiens, UniProt P00918)
# [2] = molecular target: T1, Carbonic anhydrase 2; remark: listed apart in the source
# [3] = molecular target: T1, Carbonic anhydrase 2; remark: listed apart in the source
Structure (SMILES),Kd [1] [nM],IC50 [2] [nM],Ki [3] [nM]
NC(=O)NCCOCCOCCNC(=O)c1ccc(S(N)(=O)=O)cc1,43,–,–
CN(C)c1cccc2c(S(N)(=O)=O)cccc12,93000,–,–
COCCOCCN(CCOC)c1cc2cc(S(N)(=O)=O)sc2s1,–,2.8,1.58
CCCCCCCCCS(=O)(=O)C(F)S(N)(=O)=O (configuration not stated),–,3,–
CN(C)S(=O)(=O)Oc1ccc2nc(S(N)(=O)=O)sc2c1,–,1.2,–
CC1(C)O[C@H]2[C@@H]3OS(=O)(=O)O[C@@H]3CC[C@@]2(COS(N)(=O)=O)O1,–,130,–
CCN[C@H]1CN(CCCCOC)S(=O)(=O)c2sc(S(N)(=O)=O)cc21,0.13,3.2,–
CC(C)(C)C(=O)Oc1ccc2sc(S(N)(=O)=O)cc2c1,–,2.6,–
NS(=O)(=O)c1cc2cc(N3CCSCC3)sc2s1,–,2.6,0.44
NS(=O)(=O)c1cc2cc(N3CCOCC3)sc2s1,–,3,1.1
NS(=O)(=O)OCCOc1ccc(-n2ccnc2)cc1,–,–,7
CN(C)Cc1cc(S(=O)(=O)c2ccc(S(N)(=O)=O)s2)ccc1O,–,0.7,–
N[C@@H](Cc1ccccc1)C(=O)NCCOCCOCCNC(=O)c1ccc(S(N)(=O)=O)cc1 [PHENYLALANYLAMINODI(ETHYLOXY)ETHYL BENZENESULFONAMIDEAMINOCARBONYLBENZENESULFONAMIDE],14,–,–
